# Like-named read-outs stand apart in the source and are kept apart here.
# How the values were obtained:
# [1] = In vivo pharmacokinetic experiment in mice; conditions: C57 mice; for AUC0-t / AUC0-∞ / MRT / half-life / clearance / Vd / Cmax / Tmax: plasma; for F: 20 mg/kg p.o. vs 5 mg/kg i.v.; for MRT / half-life / clearance / Vd / Cmax / Tmax: male, mouse; for Vd: read-out: Vss
# Procedure: Healthy male C57 mice were randomly divided into groups with 3 mice in each group, and the test compounds were administrated intragastrically or by intravenous injection. See Table 6 below for specific arrangements:
# (§1) Each test compound was dissolved in physiological saline to prepare a certain concentration of solution for administration.
# (§2) One day before administration, the mice were fasted and allowed to drink freely for 12-14 h. The mice were fed 4 h after administration.
# 0.030 mL of blood was took from each animal each time through the orbit, and anticoagulated with EDTAK2. The collection time points were as follows: in PO group, 5 min, 15 min, 30 min, 1 h, 2 h, 4 h, 6 h, 8 h, 24 h after administration of test substance; in IV group, 2 min, 5 min, 15 min, 30 min, 1 h, 2 h, 4 h, 6 h, 8 h, 24 h after administration of test substance. After blood samples were collected, they were placed on ice and centrifuged to separate the plasma within 30 minutes (centrifugation conditions: 5000 rpm, 10 minutes, 4° C.). The sample were stored at −80° C. before analysis.
# [2] = rats, literature (Journal of Psychopharmacology, 2019, 33, 12-24), cited from earlier work
# C57 mice [3] = assay: Forced swimming experiment, oral administration to mice; format: in vivo; conditions: C57 mice
# Procedure: 1 h and 24 h after a single oral administration of 20 mg/kg, forced swimming experiments were then carried out to investigate the effects of different compounds on depression-like behavior in C57 mice.
# (§3) Experimental animals were 6-week aged C57 mice, male, C57 mice were purchased from Shanghai SLAC Laboratory Animal Co., Ltd., with a body weight of 20.45±0.19 g. Before the experiment, they arrived at the Animal Feeding Center of Shanghai Institute of Materia Medica, Chinese Academy of Sciences (Animal Production License: SCXK9[Shanghai]2004-0002, usage license: SYXK[Shanghai]2003-0029), and adapted for 3 days or more in animal facilities. They were bred at 6 animals/cage. The breeding environment was room temperature 23±0.2° C., with 12/12 hours alternation of day and night. Before the behavioral test, the animals should be moved to the behavioral test operation room 2 hours in advance to adapt to the environment and reduce their tension.
# Preparation of the test product: each test compound was accurately weighed and dissolved in 0.9% NaCl solution, mixed thoroughly, and prepared into 1 mg/ml and 2 mg/ml solutions respectively, and set aside.
# (§4) 24 hours before the administration, the mice were placed in a cylindrical tank to adapt to the aquatic environment for 10 min. On the day of the behavioral test, the animals were respectively administered intragastrically once at 1 h and 24 h before the behavioral test. The mice were placed individually into a cylindrical glass tank with a height of 30 cm and a diameter of 20 cm. The water depth in the tank was 15 cm, so that the animals could not escape from the glass tank and their feet and tails could not touch the bottom of the tank, the water temperature was 23° C.-25° C. A 6 minute video was taken after the mouse entered into water. Since most animals were very active in the first two minutes, the immobility time in the following 4 minute were calculated (criterion of immobility: the mouse stops struggling in the water, stays still and has small limbs movement to maintain balance or to keep a floating state).
# (§5) The antidepressant effect of a compound was evaluated by the ability of the compound to reduce the immobility time of the animal in the forced swimming test as compared with the blank group. Inhibition rate1 h(%)=immobility time(blank, 1 h)−immobility time(administration, 1 h)/immobility time(blank, 1 h)×100% Inhibition rate24h(%)=immobility time(blank, 24 h)−immobility time(administration, 24 h)/immobility time(blank, 24 h)×100%
# C57 mice [4] = assay: Forced swimming experiment, intraperitoneal administration to mice; format: in vivo; conditions: for inhibition in vivo at 10 mg/kg: Mus musculus, ip; for 1 h inhibition rate: forced swimming 1 h after single intraperitoneal 10 mg/kg
# Procedure: The forced-swimming test is currently the most widely used classic method to evaluate the antidepressant effects of compounds in rodents. […] The time in immobile state of experimental animal is observed and recorded, which can be used to evaluate the effect of antidepressant compounds.
# 1 h and 24 h after a single intraperitoneal administration of 10 mg/kg, forced swimming tests were respectively carried out to investigate the effects of different compounds on depression-like behaviors of C57 mice.
# as §3, with “male, and” for “male,”
# Preparation of the test product: each test compound was accurately weighed and dissolved in 0.9% NaCl solution, mixed thoroughly, and prepared as a 1 mg/ml solution, set aside.
# as §4, with “intraperitoneally” for “intragastrically”
# as §5, with “group. The shorter the immobility time of the animal to be tested, the higher the inhibition rate and the stronger the antidepressant activity.” for “group.”, “rate24 h(%)=immobility” for “rate24h(%)=immobility”
# [5] = cited from earlier work
# [6] = in mice, background statement; cited from earlier work
# hERG potassium channel = biological target: T1, hERG potassium channel (Homo sapiens, UniProt Q12809); assay: hERG potassium channel inhibition experiment (automatic patch clamp, CHO-hERG cells); format: cell-based; conditions: Qpatch, highest tested concentration 40 μM, read-out: IC50, blocking effect on the hERG potassium current
# T1 construct: expressed in transfected cells
# T1 sequence (Q12809 whole entry): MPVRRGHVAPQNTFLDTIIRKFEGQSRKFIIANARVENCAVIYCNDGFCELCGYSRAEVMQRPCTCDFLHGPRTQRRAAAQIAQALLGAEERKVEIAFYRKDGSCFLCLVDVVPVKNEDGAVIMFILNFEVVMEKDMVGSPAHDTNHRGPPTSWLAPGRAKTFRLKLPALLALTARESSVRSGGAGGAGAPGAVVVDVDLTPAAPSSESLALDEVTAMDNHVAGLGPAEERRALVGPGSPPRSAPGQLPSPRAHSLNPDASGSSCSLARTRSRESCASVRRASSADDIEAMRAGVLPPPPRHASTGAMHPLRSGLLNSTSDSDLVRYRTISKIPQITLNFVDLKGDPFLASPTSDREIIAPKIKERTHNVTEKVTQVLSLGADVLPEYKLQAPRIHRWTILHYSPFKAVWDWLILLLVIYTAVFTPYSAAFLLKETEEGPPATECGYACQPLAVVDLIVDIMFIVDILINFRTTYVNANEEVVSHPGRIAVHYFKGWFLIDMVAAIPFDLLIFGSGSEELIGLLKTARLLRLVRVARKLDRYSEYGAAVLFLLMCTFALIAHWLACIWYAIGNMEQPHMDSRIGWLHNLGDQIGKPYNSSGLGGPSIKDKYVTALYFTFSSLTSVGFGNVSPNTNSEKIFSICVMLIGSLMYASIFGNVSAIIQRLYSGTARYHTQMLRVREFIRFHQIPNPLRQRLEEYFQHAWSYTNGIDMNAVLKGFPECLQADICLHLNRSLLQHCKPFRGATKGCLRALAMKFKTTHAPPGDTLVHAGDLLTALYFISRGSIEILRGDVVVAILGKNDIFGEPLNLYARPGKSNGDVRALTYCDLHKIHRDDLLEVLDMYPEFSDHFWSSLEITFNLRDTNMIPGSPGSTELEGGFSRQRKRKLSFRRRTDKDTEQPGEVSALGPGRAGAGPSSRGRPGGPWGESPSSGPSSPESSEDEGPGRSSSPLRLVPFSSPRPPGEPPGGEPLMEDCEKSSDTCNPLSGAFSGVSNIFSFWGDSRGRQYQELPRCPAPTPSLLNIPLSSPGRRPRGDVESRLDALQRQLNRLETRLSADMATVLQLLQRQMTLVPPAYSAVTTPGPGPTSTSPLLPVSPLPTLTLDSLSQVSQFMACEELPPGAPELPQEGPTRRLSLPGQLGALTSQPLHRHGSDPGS
# Procedure: Fully automatic patch clamps were used to test the blocking effect of the compounds of the present invention on the hERG potassium current on a stable cell line transfected with hERG potassium channels.
# CHO-hERG cells were cultured in 175 cm^2 culture flask. When the cell grew to 60-80% confluence, the culture medium was removed. The cells were washed with 7 ml PBS (Phosphate Buffered Saline) once, and then 3 ml Detachin was added to digest.
# After the digestion was completed, 7 ml culture medium was added to neutralize. The mixture was centrifuged, and after the supernatant was removed, 5 ml culture medium was added to resuspend to ensure the cell density was 2×10^6-5×10^6/ml.
# Single-cell high-impedance sealing and whole-cell mode formation were all automatically completed by using the Qpatch instrument. After the recording mode was obtained, the cell was clamped at −80 millivolts. Before +40 millivolt depolarization stimulation for 5 seconds was given, −50 millivolt pre-voltage for 50 millisecond was first given, then repolarized to −50 millivolt for 5 seconds, and then returned to −80 millivolt. This voltage stimulus was applied every 15 seconds. After recording for 2 min, extracellular fluid was given, and recording was conducted for 5 min, and then the dosing process started. The compound concentration started from the lowest test concentration, and each test concentration was given for 2.5 min. […] At least 3 cells per concentration (n≥3) were tested.
# 20 mM compound mother liquor was diluted with extracellular fluid. 5 μL of 20 mM compound mother liquor was taken and added into 2495 μL extracellular fluid, so that it was diluted 500 times to 40 μM, and was then serially diluted 3 times in an extracellular fluid containing 0.2% DMSO to obtain the final concentration to be tested.
# The highest tested concentration was 40 μM, and the concentrations were in order as follows: 40, 13.33, 4.44, 1.48, 0.49, 0.16 μM, totally 6 concentrations.
# Experimental data were analyzed by XLFit software.
# [7] = Distribution in mouse brain tissue; format: in vivo, C57 mice; conditions: male, brain, po; C57 mouse, 10 mg/kg p.o., 30 min
# Procedure: Healthy male C57 mice were randomly divided into groups with 3 mice in each group, and the test compound was administrated intragastrically. See Table 10 below for specific arrangements:
# as §1, §2
# After the animals were bled, the brain tissue was collected. After washing, 50% ice methanol was added for homogenate at 1:4 (m/v). The collection time points was 10 min, 15 min, 30 min, 1 h, 2 h after administration of the test substance; 30.0 μL of tissue sample was taken (the sample was taken out from the refrigerator at −80° C., vortexed for 30 seconds after natural melting at room temperature) and added into a 1.5 mL centrifuge tube. 300.0 μL internal standard solution (30 ng/mL […] acetonitrile solution) was added, the mixture was vortex for 60 seconds and then centrifuged for 3 minutes (centrifugal force was 12000 rpm); 75 μL of the supernatant was taken and transferred to 96-well injection plate loaded with equal volume of water, shaken and mixed well, and subjected to LC-MS/MS analysis, wherein injection volume was 10 μL.
# [8] = inhibition of immobility time, forced swimming 1 h after single oral (intragastric) 20 mg/kg
# [9] = inhibition of immobility time, forced swimming 24 h after single oral (intragastric) 20 mg/kg
# [10] = 1 h, read-out: 1 h inhibition rate
# [11] = 24 h, read-out: 24 h inhibition rate
# [12] = inhibition of immobility time, C57 mice
# [13] = brain tissue, 50 mg/kg p.o., literature (Journal of Psychopharmacology, 2019, 33, 12-24)
Structure (SMILES),AUC0-t ([1]; 5 mg/kg i.v.),AUC0-∞ ([1]; 5 mg/kg i.v.),F [1],AUC0-t ([1]; 20 mg/kg p.o.),AUC0-∞ ([1]; 20 mg/kg p.o.),"MRT ([1]; iv, 5 mg/kg i.v.)","half-life ([1]; iv, 5 mg/kg i.v.)","clearance ([1]; iv, 5 mg/kg i.v.)","Vd ([1]; iv, 5 mg/kg i.v.)","Cmax ([1]; po, 20 mg/kg p.o.)","MRT ([1]; po, 20 mg/kg p.o.)","Tmax ([1]; po, 20 mg/kg p.o.)","half-life ([1]; po, 20 mg/kg p.o.)",1 h inhibition rate (C57 mice [3]; [8]),24 h inhibition rate (C57 mice [3]; [9]),inhibition in vivo at 10 mg/kg (C57 mice [4]; [10]),inhibition in vivo at 10 mg/kg (C57 mice [4]; [11]),1 h inhibition rate (C57 mice [4]; [12]),IC50 (hERG potassium channel),further results
"Cl.N[C@@]1(c2ccccc2Cl)CCC[C@@H](O)C1=O [(2R,6R)-HNK, (2R, 6R)-HNK, reference compound]",2085 ngh/mL,2096 ngh/mL,66.8%,5589 ngh/mL,5599 ngh/mL,23.4 min,20.4 min,2.44 L/h/kg,0.94 L/kg,7.18 µg/mL,52.5 min,5 min,55.8 min,18.4 ± 1.6%,19.6 ± 4.4%,31.1%,27.4%,31.1 ± 4.0%,,"AUC0-∞ ([2]; 10 mg/kg i.v.): 6270 ngh/mL; CL ([2]; 10 mg/kg i.v.): 1.62 L/h/kg; T1/2 ([2]; 10 mg/kg i.v.): 480 min; Vss ([2]; 10 mg/kg i.v.): 7.5 L/kg; AUC0-∞ ([2]; 10 mg/kg p.o.): 2650 ngh/mL; Cmax ([2]; 10 mg/kg p.o.): 1.5 µg/mL; F ([2]; 10 mg/kg p.o.): 42%; T1/2 ([2]; 10 mg/kg p.o.): 414 min; Tmax ([2]; 10 mg/kg p.o.): 10 min; 24 h inhibition rate (C57 mice [4]; inhibition of immobility time, forced swimming 24 h after single intraperitoneal 10 mg/kg, C57 mice): 27.4 ± 3.9%; Brain tissue concentration ([5]; 10 mg/kg intraperitoneally, literature (Nature, 2016, 533, 481-486; Nature, 2017, 546, E1-E5)): 2562 ng/g; Brain tissue concentration ([5]; 50 mg/kg p.o., 10 min, literature (Journal of Psychopharmacology, 2019, 33, 12-24)): 6490 to 8600 ng/g; AUC0-∞ [5, 13]: 2850 to 5190 ng·h/g; T1/2 [5, 13]: 42 min; T1/2 [6]: < 60 min"
"Cl.NC1(c2ccc(C(F)(F)F)cc2)CCCC(O)C1=O (stereo not shown) [Compound 46, 2-amino-6-hydroxy-2-(4-(trifluoromethyl)phenyl)cyclohexane-1-one hydrochloride]",,,,,,,,,,,,,,31.2 ± 4.7%,32.3 ± 1.5%,34.7 ± 4.1%,43.5%,,> 40 µM,
"Cl.N[C@@]1(c2cccc(OC(F)(F)F)c2F)CCC[C@@H](O)C1=O [Compound 64, (2R,6R)-2-amino-2-(2-fluoro-3-(trifluoromethoxy)phenyl)-6-hydroxycyclohexane-1-one hydrochloride]",4817 ngh/mL,4838 ngh/mL,66.2%,12708 ngh/mL,12816 ngh/mL,52.8 min,52.2 min,1.03 L/h/kg,0.91 L/kg,11.9 µg/mL,125 min,5 min,239 min,36.5 ± 5.3%,34.5 ± 1.0%,,,,> 40 µM,concentration at 30 min [7]: 5740 ng/g
"CNC1(c2ccccc2Cl)CCCCC1=O (stereo not shown) [Ketamine, ketamine, reference compound]",,,,,,,,,,,,,,,,29.2%,35.4 ± 7.9%,29.2 ± 4.6%,,"1 h inhibition rate (C57 mice [3]; control given intraperitoneally 10 mg/kg, 1 h): 22.7 ± 0.2%; 24 h inhibition rate (C57 mice [3]; control given intraperitoneally 10 mg/kg, 24 h): 25.1 ± 2.7%; Brain tissue concentration ([5]; 30 mg/kg intraperitoneally, literature (Journal of Pharmaceutical and Biomedical Analysis, 2018, 148, 288-297)): 1929 ng/g"
